How the values were obtained:
[1] = system: PANC-1 cell line (pancreatic duct epitheloid carcinoma); assay: Safety of compounds as non-oncogenic: cancer cell proliferation, PANC-1; format: cell-based, human; settings: FIG. 7B, serum and FGF positive controls
Procedure: (§1) The safety of the compounds was tested in two different human cancer cell lines purchased from ATCC. FIG. 7A cell line PC-3 was of prostate/adenocarcinoma from a person, and FIG. 7B cell line PANC-1 was from a pancreatic duct epitheloid carcinoma from a person. Serum and FGF (Fibroblast Growth Factor) conditions were used as positive controls. *, **, ***, **** indicates difference from the control, One-way ANOVA, with p<0.05, p<0.01, p<0.001, p<0.0001, respectively. Data are presented as Mean+/−SEM.
(§2) The safety of the compounds were tested in two different human cancer cell lines purchased from ATCC. Serum and FGF (Fibroblast Growth Factor) conditions were used as positive controls. *, **, ***, **** indicates difference from the control, One-way ANOVA, with p<0.05, p<0.01, p<0.001, p<0.0001, respectively. Data are presented as Mean+/−SEM.
Cell line PANC-1 was from a pancreatic duct epitheloid carcinoma from a person (FIG. 7B).

[2] = system: Human primary myoblasts; assay: Myogenic amplification and commitment of muscle stem cells (Pax7/MyoD staining); format: cell-based; settings: dose response, donors 1 and 2 pooled, 96 hours, control DMSO 1%; for proportion of MyoD+ cells (normalized to total cell number, fold change compared to control): FIG. 1B/2B
Procedure: Human Skeletal Muscle Myoblasts were purchased from Lonza (https://bioscience.lonza.com). These cells were isolated from the upper arm or leg muscle tissue of normal donors and used after the second passage. Several donors were tested to ensure cell viability and purity before selecting the final donors, which are a person (refer thereafter as Donor 1), a person (refer thereafter as Donor 2) and a person (refer thereafter as Donor 3). Human primary myoblasts were seeded in 384 well plates at a density of 1′000 cells per well in skeletal muscle growth medium (SKM-M, AMSbio). For treatment, compounds were directly added to the myoblast cultures 16 hours after initial plating. All cultures were then grown for 96 hours. Cells were stained for Pax7 and MyoD expression using antibodies directed against Pax7 and MyoD and counterstained with Hoechst 33342 to visualize cell nuclei. Pax7+ cells are defined as cells that express Pax7 regardless of MyoD expression. […] Image acquisition was performed using the ImageXpress (Molecular Devices) platform. Custom module analysis based on Multi-Wavelength Cell Scoring of the MetaXpress software was used for quantification. *, **, ***, **** indicates difference from the control, One-way ANOVA, with p<0.05, p<0.01, p<0.001, p<0.0001, respectively. Data are presented as Mean+/−SEM Human primary myoblasts from different donors (donor 1, donor 2 or donor 3) were seeded in 384 well plates at a density of 1′000 cells per well in skeletal muscle growth medium (SKM-M, AMSbio). For treatment, compounds were directly added to the myoblast cultures 16 hours after initial plating. All cultures were then grown for 96 hours. Cells were stained for Pax7 and MyoD expression using antibodies directed against Pax7 and MyoD and counterstained with Hoechst 33342 to visualize cell nuclei. Pax7+ cells are defined as cells that express Pax7 regardless of MyoD expression. […] Custom module analysis based on Multi-Wavelength Cell Scoring of the MetaXpress software was used for quantification. […] Data are expressed as number of cells per arear of injured muscle.

[3] = system: PC-3 cell line (prostate adenocarcinoma); assay: Safety of compounds as non-oncogenic: cancer cell proliferation, PC-3; format: cell-based, human; settings: FIG. 7A, serum and FGF positive controls
Procedure: as §1, §2
Cell line PC-3 of prostate/adenocarcinoma from a person (FIG. 7A)

NC(=O)c1cccnc1 [Nicotinamide]
proliferation of cancer cells [1]: no effect on the proliferation of cancer cells | proportion of Pax7+ cells (normalized to total cell number, fold change compared to control) ([2]; FIG. 1A): increasing the proportion of both amplifying (Pax7+) and differentiating (MyoD+) cells in a dose dependent manner | proportion of MyoD+ cells (normalized to total cell number, fold change compared to control) [2]: increasing the proportion of both amplifying (Pax7+) and differentiating (MyoD+) cells in a dose dependent manner | proliferation of cancer cells [3]: no effect on the proliferation of cancer cells

Cc1ncc(CO)c(CO)c1O [Pyridoxine]
proliferation of cancer cells [1]: no effect on the proliferation of cancer cells | proportion of MyoD+ cells (normalized to total cell number, fold change compared to control) [2]: increasing the proportion of differentiating (MyoD+) cells in a dose dependent manner | proliferation of cancer cells [3]: no effect on the proliferation of cancer cells

Source: patent US12691105B2, “Compositions containing nicotinamide and vitamin B6 and methods of using such compositions for treating cachexia or precachexia” (SOCIETE DES PRODUITS NESTLE S.A., priority 2020, dated 2026)
